Data as given in patent US12186348B2, “Glycan strands and oligosaccharides derived from Streptococcus bacteria” (Meharry Medical College, priority 2018, dated 2025).

Columns and labels:
[1] = system: A3G; assay: A3G mRNA expression in THP-1 cells by qRT-PCR; assay type: cell-based, human
Protocol: Equal volumes of an S. cristatus CC5A whole cell extract (CC5A1E), fraction A (glycan strands and peptides), fraction B (glycan strands), and CC5Ap were used to treat THP-1 cells for 16 hours. THP-1 cell line is a human monocytic cell line derived from acute monocytic leukemia. The THP-1 cells were obtained from the NIH AIDS Reagent Program. qRT-PCR was used to detect the relative expression of A3G mRNA in THP-1 cells. PBS treated THP-1 cells were used as a control.
The cell wall of S. Mu was isolated from the bacteria and the isolated cell wall was subjected to the cell component isolation shown in FIG. 2A. Oligosaccharide molecules (from the same amount of bacteria) of CC5Ap and S. Mu were used to treat THP-1 cells. The THP-1 cells were obtained from the NIH AIDS Reagent Program. PBS and CC5A/E were used as the controls. A3G expression was measured by qRT-PCR.
(§1) To determine whether CC5Ap induces MX2 expression, THP-1 cells were treated with different doses (units) of CC5Ap for 16 hours. The THP-1 cells were obtained from the NIH AIDS Reagent Program. One unit of CC5Ap is defined as the amount of CC5Ap needed to induce a 3-fold increase in A3G mRNA expression over a period of 16 hours, using 5×10^5 THP-1 cells in 500 μl of cell culture medium. MX2 expression was measured by qRT-PCR. After treatment the cells were either subjected to measuring MX2 expression by Western-blot analyses or infected with HIV-1.
(§2) Synthetic G-M from Toronto Research Chemicals (Cat: A178230) was purchased. The synthetic G-M structure was confirmed by 1H NMR (D2O) and MS. Different doses of G-M were used to treat THP-1 cells. The THP-1 cells were obtained from the NIH AIDS Reagent Program. Specifically, 50 μg, 100 μg, 200 μg and 300 μg/ml G-M (shown in FIGS. 8A-8C as G-M 0.5, 1, 2, 3, respectively) were used to treat THP-1 cells. 1 unit CC5A A/E and CC5Ap were used as the controls. The cells were treated overnight. The mRNA levels of A3G and MX2 were measured by qRT-PCR.

[2] = system: MX2; assay: MX2 expression in THP-1 cells (qRT-PCR, Western-blot); assay type: cell-based, human; conditions: THP-1 cells, 50, 100, 200, 300 μg/ml, overnight (FIG. 8B)
Protocol: as §1, §2

[3] = system: HIV IIIB; assay: HIV IIIB replication in THP-1 cells, nine days culture; assay type: cell-based; conditions: THP-1 cells pre-treated 1 hour, qRT-PCR (FIG. 8C)
Protocol: To determine whether G-M inhibits HIV IIIB replication, THP-1 cells were pre-treated 1 hour with G-M or CC5Ap. 100 ng […] content of IIIB was added into the cell culture to infect the cells overnight. Post-infection, cells were washed 2 times and cultured for nine days. The viral supernatant was subjected to qRT-PCR to measure viral release.

[4] = system: THP-1 cells; assay: Cell number of G-M treated THP-1 samples; assay type: cell-based, human
[5] = system: Vpr-BlaM containing HIV NL4-3 virus; assay: HIV-1 viral entry assay (Vpr-BlaM, CCF2) in THP-1 cells; assay type: cell-based; conditions: THP-1 cells pre-treated overnight, compared to untreated control (FIGS. 12, 14)
Excerpt: To determine whether the disclosed molecules have effects on HIV-1 viral entry, a sensitive and specific enzyme-based assay developed by Marielle et al (6) was used. THP-1 cells were pre-treated with AMD3100 (HIV entry inhibitor), CC5A/PBS (cell lysate of Streptococcus Cristatus CC5A), and different amounts of G-M (GlcNAc-MurNAc, which is a disaccharide molecule of glycan strain) overnight. PBS treated THP-1 cells were used as the untreated control. After washing, Vpr-BlaM containing HIV NL4-3 virus was used to infect the cells. After washing again, the cells were subjected to CCF2 staining overnight. The following day, the cells were analyzed by FACSAria III for CCF2 (green/FITC-A) and cleaved CCF2 (DAPI-A) florescence.
THP-1 cells were treated with CC5Ap and with cell lysate from Streptococcus Mutant (S. MuP). The protocol described in Example 10 was followed to test the effects of CC5Ap and S.MuP on HIV viral entry.

## CC(=O)N[C@H]1[C@H](O[C@H]2[C@H](O[C@H](C)C(=O)O)[C@@H](NC(C)=O)C(O)O[C@@H]2CO)O[C@H](CO)[C@@H](O)[C@@H]1O (stereo partly drawn) [G-M, N-Acetyl-D-glucosamine-(1-4)-N-acetylmuramic acid]
[1]; 1 unit = amount inducing 3-fold A3G mRNA increase in 16 hours, 5×10^5 THP-1 cells in 500 μl
  experimentally determined activity of synthetic G-M: 0.005 units/μg
[1]; THP-1 cells, 50, 100, 200, 300 μg/ml, overnight (FIG. 8A)
  A3G mRNA expression: enhanced A3G mRNA expression (FIG. 8A) and MX2 mRNA expression (FIG. 8B) in a dose-dependent manner
[1]; based on G-M concentration of CC5Ap prep (about 100 μg/mL) and activity of synthetic G-M
  share of the total CC5Ap activity: about 5%
[2]
  MX2 mRNA expression: enhanced A3G mRNA expression (FIG. 8A) and MX2 mRNA expression (FIG. 8B) in a dose-dependent manner
[3]
  HIV IIIB replication (viral release): inhibits HIV IIIB replication in a dose-dependent manner
[4]
  noticeable cell number difference between PBS and treated samples: not observed
[5]
  relative HIV entry: reduced HIV entry dramatically
